Legend:
C2C12 = assay: Toxicity of polymer materials in vitro (metabolic/luminescent viability assay); type: cell-based
H1299 cells = assay: as above; type: cell-based; conditions: H1299, 16-hour exposure, polymer in OPTI-MEM
Method: Material toxicity was assessed using live dead assays.
H1299 cells were seeded in 96-well plates (10000/well). After a 24 h recovery period, cells were treated with 0.1 to 2 μg of PEI (25K, Polyscience, Inc., Philadelphia Pa.), PLL (Alamanda Polymers, Inc., Huntsville Ala., 5 kDa), and P: PLL(M) 33, P: PLL(MN) 33, and P: PLL(TM) 33″ prepared in OPTI-MEM. After a 16-hour exposure, cells were analysed using a live/dead stain or metabolic assay. For the live/dead assay, 10 μL of Calcein AM (2 mM in DMSO) and 5 of propidium iodide (2 mM DMSO) stock solutions were dissolved in 5 mL of PBS. The cells were then washed with PBS twice and staining solution added (100 μL/well). After a 30-minute incubation period at 37° C., the cells were imaged using an IncuCyte plate reader (Sartorius). Alternatively, metabolic assays were performed using Celriter-Glo·Luminescent Assay using the manufacturers standard protocol. Luminescence measurements were collected using a PHERAStar plate reader (BMG LabTech) and IC50 doses were derived by fitting the data in Microsoft excel.

Q: Which Toxicity/IC50 (C2C12) does the source give for Poly-L-lysine [P: PLL] here?
A: 0.33 μg/well

Q: And the Toxicity/IC50 (H1299 cells)?
A: 0.21 μg/well
